Measured values from US8084196B2, “Method for the in vitro screening of anti-cancer compounds that inhibits SK3 activity, and said anti-cancer compounds” (priority 2006, dated 2011).

Assays:
[1] = tested on: MDA-MB-435s cells; details: for decrease of outward currents: FIG. 2C
Procedure: Currents were generated by stepwise 8 mV depolarizing pulses (400 ms duration; 5 sec intervals) from a constant holding potential of −70 mV up to +58 mV. Signals were filtered at 1 kHz and digitized at 10 kHz.
B, C—Current-density was obtained by dividing the averaged steady-state current elicited at +26 mV (recorded during the latest 50 ms of the pulse) by the respective cell capacitance. Membrane capacitance was calculated by integrating the capacitive current measured during a 10 mV voltage step.
(§2) Whole-cell potassium currents and intracellular Ca^2+ ([Ca^2+]i) measurements were recorded as described (Roger S, Potier M, Vandier C, Le Guennec J Y, Besson P. Description and role in proliferation of iberiotoxin-sensitive currents in different human mammary epithelial normal and cancerous cells. (Biochim Biophys Acta 2004; 1667:190-9.). Signals were captured using 1322-A Digidata converter (Axon Instruments, USA) and pClamp 8.1 software (Axon Instruments, USA). The analysis were performed using Clampfit 8.1 and Origin 7.0 softwares (Microcal Software, Northampton, Mass., USA).
(§3) The physiological saline solution (PSS) in mM: NaCl 140, MgCl2 1, KCl 4, CaCl2 2, D-glucose 11.1, and HEPES 10, adjusted to pH 7.4 with NaOH. The pipette solution for the whole-cell recording, pCa=7 was (in mM): K-glutamate 125, KCl 20, CaCl2 0.37, MgCl2 1, Mg-ATP 1, EGTA 1, HEPES 10, adjusted to pH 7.2 with KOH. […] All drugs and chemicals were purchased from Sigma-Aldrich (St Quentin, France), except Lei-Dab7 which was a generous gift from Dr. J. M. Sabatier, UMR CNRS 6560, Marseille, France.

[2] = target: SK3 (Homo sapiens, UniProt Q9UGI6); details: apamin: low concentration (1 nM); cited from earlier work
[3] = tested on: MDA-MB-435s cells; format: cell-based, human; details: current-clamp, FIG. 2D
Procedure: D—Variations of membrane potential recorded in control conditions (PSS without drugs, n=11) and in presence of TEA (n=7), 4-AP (n=8) and TEA plus 4-AP (n=3). Membrane potential was measured in current-clamp mode (I=0) just after the disruption of the patch membrane.
as §2, §3

[4] = tested on: SK3 protein; test: Western blot of SK3 protein after siRNA transfection, MDA-MB-435s; format: cell-based, human; details: 24, 48, 72 h after transfection vs scrambled-siRNA, greatest effect at 72 hours
Procedure: A—Top, Western blot patterns showing the silencing effect on the expression of SK3 protein—of two siRNAs designed against SK3 mRNA. Cells were transfected with siRNA-lipofectamine complexes for 24 h, 48 h and 72 h. A scrambled-siRNA was used as negative control. SiRNA oligonucleotide sequences are listed in the Materials and Methods section. Bottom, Histograms showing the inhibitory effect on […] cell migration after 24 h, 48 h and 72 h siRNA transfection with or without 10 nM apamin. Results from two separate experiments performed in triplicate are expressed as mean±S.E.M. Normalization of cell number performed as described in the legend of FIG. 1. Note that the cells have lost their sensitivity for apamin after siRNA transfection, indicating a specific effect on SK3 protein.
For Western blot experiments, proteins were electrotransferred onto polyvinylidene fluoride membranes which were incubated with antibodies directed against SK2 and SK3 proteins (1:1000) followed by incubation with a horseradish peroxidase-conjugated anti-rabbit IgG (1:5000; Tebu-Bio, France). Anti-SK2 directed against amino acids 542-559 and anti-SK3 directed against amino acids 2-21 (Sigma-Aldrich, France) were used for Western blot and immunocytochemical experiments. Anti-Actin directed against amino acids 20-33 (Sigma-Aldrich, France) was used for western blot loading control experiments. […]

[5] = tested on: MDA-MB-435s cells; format: cell-based, human; details: FIG. 4A; for number of migrating cells after siRNA transfection: MDA-MB-435s, 24, 48, 72 h after transfection
Procedure: Cells were seeded at 40000 in a cell culture insert in DMEM with 5% FBS±drugs or [K^+] 60 mM. […] 60 mM. After 24 h, cells of the lower compartment were stained with hematoxylin (A, bottom) and counted. The normalized cell number corresponded to the ratio of total number of migrating cells in presence of drug or [K^+] 60 mM/total number of migrating cells in control experiments. […] Scale bar=10 μm for the two panels.
(§1) Cell proliferation was determined using the tetrazolium salt reduction method, as described (Roger S, Potier M, Vandier C, Le Guennec J Y, Besson P. Description and role in proliferation of iberiotoxin-sensitive currents in different human mammary epithelial normal and cancerous cells. Biochim Biophys Acta 2004; 1667:190-9.). Cells were seeded on 24-well plates and grown for 48 h. […] Cell migration was analyzed in 24-well plates receiving 8-μm pore size polyethylene terephtalate membrane cell culture inserts (Becton Dickinson, France), as described (Roger S, Potier M, Vandier C, Le Guennec J Y, Besson P. Description and role in proliferation of iberiotoxin-sensitive currents in different human mammary epithelial normal and cancerous cells. Biochim Biophys Acta 2004; 1667:190-9.).

[6] = target: SK2 (Homo sapiens, UniProt Q9H2S1); details: apamin: low concentration (1 nM); cited from earlier work
[7] = tested on: SK3 protein; test: Western blot of SK3 protein after siRNA transfection, 518A2; format: cell-based, human; details: 518A2, 48 hours after transfection vs scrambled-siRNA, FIG. 8A
Procedure: FIG. 8A—Western blot patterns showing the silencing effect on the expression of SK3 protein of two siRNAs designed against SK3 mRNA. Cells were transfected with siRNA-lipofectamine complexes for 48 h. A scrambled-siRNA was used as negative control. siRNA oligonucleotide sequences are listed in the Materials and Methods section.
For Western blot experiments, proteins were electrotransferred onto polyvinylidene fluoride membranes which were incubated with antibodies directed against SK2 and SK3 proteins (1:1000) followed by incubation with a horseradish peroxidase-conjugated anti-rabbit IgG (1:5000; Tebu-Bio, France). Anti-SK2 directed against amino acids 542-559 and anti-SK3 directed against amino acids 2-21 (Sigma-Aldrich, France) were used for Western blot and immunocytochemical experiments. Anti-Actin directed against amino acids 20-33 (Sigma-Aldrich, France) was used for western blot loading control experiments.
Two SK3 specific siRNA were designed: first set, hSK3-ex1-Sense 5′-GAAAGCGACUGAGUGACUAdTdT-3′ (sequence SEQ ID No. 5) and hSK3-ex1-Antisense 5′-UAGUCACUCAGUCGCUUCdTdT-3′, (sequence SEQ ID N 06) located in exon 1; second set, hSK3-ex3-Sense 5′-CCAUUCCUGGCGAGUACAAdTdT-3′ (sequence SEQ ID No. 7) and hSK3-ex3-Antisense 5′-UUGUACUCGCCAGGAAUGGdTdT-3′, (sequence SEQ ID No. 8) located in exon 3. […]

[8] = tested on: 518A2 cells; test: Cell migration, 518A2 melanoma cells; format: cell-based; details: 518A2, 48 hours after transfection, FIG. 8B
Procedure: Histograms showing the effect of 10 nM apamin on cell migration (FIG. 5A). Cells were seeded at 40000 in a cell culture insert in DMEM with 5% FBS±apamin. The lower compartment of the insert contained DMEM with 10% FBS as a chemoattractant±apamin. After 24 h, cells of the lower side were stained with hematoxylin (FIG. 5B, right) and counted. The normalized cell number corresponded to the ratio of total number of migrating cells in presence of apamin/total number of migrating cells in control experiments. The apamin concentration selected has no effect on cell proliferation and viability. […] Mammary cancer MDA-MB-435s cells were used as control cell. […]
as §1, with “1667:190-9.).” for “1667:190-9.). Cells were seeded on 24-well plates and grown for 48 h.”

SK3 protein, sequence (Q9UGI6 other isoform, or with tags, fused parts or gaps DUP76-80): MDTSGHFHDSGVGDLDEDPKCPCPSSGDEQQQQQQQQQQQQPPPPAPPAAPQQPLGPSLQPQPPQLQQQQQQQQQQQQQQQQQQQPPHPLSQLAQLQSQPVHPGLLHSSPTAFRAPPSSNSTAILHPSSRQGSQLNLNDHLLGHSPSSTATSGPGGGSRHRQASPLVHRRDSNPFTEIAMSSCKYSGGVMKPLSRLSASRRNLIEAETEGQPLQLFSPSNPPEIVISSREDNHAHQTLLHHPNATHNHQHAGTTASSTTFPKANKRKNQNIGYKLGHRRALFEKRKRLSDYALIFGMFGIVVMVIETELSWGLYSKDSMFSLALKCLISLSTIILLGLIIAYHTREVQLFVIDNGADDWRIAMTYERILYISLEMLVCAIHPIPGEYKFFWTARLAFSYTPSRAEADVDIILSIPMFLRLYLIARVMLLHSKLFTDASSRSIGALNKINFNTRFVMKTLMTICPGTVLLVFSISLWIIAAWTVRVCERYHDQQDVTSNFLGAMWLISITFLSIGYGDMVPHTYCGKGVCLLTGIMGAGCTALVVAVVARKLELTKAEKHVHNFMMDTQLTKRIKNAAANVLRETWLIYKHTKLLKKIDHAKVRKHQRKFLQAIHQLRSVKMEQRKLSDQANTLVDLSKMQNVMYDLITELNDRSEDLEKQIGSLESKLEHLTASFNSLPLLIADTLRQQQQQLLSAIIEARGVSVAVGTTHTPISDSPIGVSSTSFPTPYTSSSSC
SK3, sequence (Q9UGI6 whole entry): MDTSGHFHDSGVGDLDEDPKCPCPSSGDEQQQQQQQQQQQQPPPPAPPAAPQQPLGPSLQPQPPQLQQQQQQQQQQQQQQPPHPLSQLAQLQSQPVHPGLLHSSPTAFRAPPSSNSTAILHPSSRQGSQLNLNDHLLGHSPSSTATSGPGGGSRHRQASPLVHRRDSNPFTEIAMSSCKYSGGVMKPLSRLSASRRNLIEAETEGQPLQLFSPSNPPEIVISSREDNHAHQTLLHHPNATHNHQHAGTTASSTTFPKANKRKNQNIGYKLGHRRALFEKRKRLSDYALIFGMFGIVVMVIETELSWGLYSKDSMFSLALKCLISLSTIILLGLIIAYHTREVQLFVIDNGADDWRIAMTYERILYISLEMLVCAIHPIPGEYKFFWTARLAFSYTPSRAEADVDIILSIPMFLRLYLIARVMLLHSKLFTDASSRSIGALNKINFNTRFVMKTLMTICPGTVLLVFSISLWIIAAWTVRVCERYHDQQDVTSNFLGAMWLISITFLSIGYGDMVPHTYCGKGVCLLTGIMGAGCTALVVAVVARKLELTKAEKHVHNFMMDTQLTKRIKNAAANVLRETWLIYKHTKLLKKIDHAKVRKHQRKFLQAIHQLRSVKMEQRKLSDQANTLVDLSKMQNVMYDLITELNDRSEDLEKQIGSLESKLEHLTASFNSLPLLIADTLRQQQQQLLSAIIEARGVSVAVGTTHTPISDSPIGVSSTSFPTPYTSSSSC
SK2, sequence (Q9H2S1 whole entry): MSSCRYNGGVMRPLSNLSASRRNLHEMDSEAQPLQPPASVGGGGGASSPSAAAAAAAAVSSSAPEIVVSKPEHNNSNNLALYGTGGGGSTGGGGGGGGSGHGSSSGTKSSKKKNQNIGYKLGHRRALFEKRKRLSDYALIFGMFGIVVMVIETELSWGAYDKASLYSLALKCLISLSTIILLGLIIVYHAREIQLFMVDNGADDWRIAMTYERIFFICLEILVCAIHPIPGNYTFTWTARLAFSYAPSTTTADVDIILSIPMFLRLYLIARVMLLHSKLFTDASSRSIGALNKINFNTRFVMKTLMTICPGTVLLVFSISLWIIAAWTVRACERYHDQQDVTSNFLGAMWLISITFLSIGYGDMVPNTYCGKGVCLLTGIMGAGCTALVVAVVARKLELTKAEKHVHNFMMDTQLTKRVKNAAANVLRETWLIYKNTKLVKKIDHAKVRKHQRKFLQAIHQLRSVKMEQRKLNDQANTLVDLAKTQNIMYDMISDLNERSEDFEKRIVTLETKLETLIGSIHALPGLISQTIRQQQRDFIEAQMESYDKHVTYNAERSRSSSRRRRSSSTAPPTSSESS

Compound	decrease of outward currents [1] [%]	block of SK3 channel [2]	effect on membrane potential [3]	SK3 expression (Western blot) [4]	number of migrating cells after siRNA transfection [5]	further results
Nc1ccncc1 [4-AP, 4-aminopyridine]	50	blocks	depolarized			
ΔExon3-siRNA: siRNA against SK3 exon 3, sense 5′-CCAUUCCUGGCGAGUACAAdTdT-3′ (SEQ ID No. 7), antisense SEQ ID No. 8 (sense CCAUUCCUGGCGAGUACAADTDT; antisense UUGUACUCGCCAGGAAUGGDTDT; chemistry not fully specified)				marked suppression	markedly reduced	relative efficiency of the siRNAs (Western blot and migration) ([5]; MDA-MB-435s): more efficient than ΔExon1-siRNA
CC[N+](CC)(CC)CC [TEA, tetraethylammonium]	50	blocks	depolarized			block of SK2 channel [6]: blocks
CC(C)C[C@@H]1NC(=O)[C@H](C)NC(=O)[C@H]([C@@H](C)O)NC(=O)[C@H](CCC(=O)O)NC(=O)[C@@H]2CCCN2C(=O)[C@H](C)NC(=O)[C@H](CCCCN)NC(=O)[C@@H]2CSSC[C@@H](C(=O)N[C@@H](CCC(N)=O)C(=O)N[C@@H](CCC(N)=O)C(=O)N[C@@H](Cc3cnc[nH]3)C(N)=O)NC(=O)[C@H](CCCNC(=N)N)NC(=O)[C@H](CCCNC(=N)N)NC(=O)[C@H](C)NC(=O)[C@H](CSSC[C@H](N)C(=O)N[C@@H](CC(N)=O)C(=O)N2)NC1=O [apamin]						IC50 ([1]; read-out: estimated IC50 of block of outward currents, whole-cell, dose-dependent, FIG. 2B): < 100 pM
ΔExon1-siRNA: siRNA against SK3 exon 1, sense 5′-GAAAGCGACUGAGUGACUAdTdT-3′ (SEQ ID No. 5), antisense SEQ ID No. 6 (sense GAAAGCGACUGAGUGACUADTDT; antisense UAGUCACUCAGUCGCUUCDTDT; chemistry not fully specified)				marked suppression	markedly reduced	SK3 expression (Western blot) [7]: decrease; number of migrating cells after siRNA transfection [8]: markedly reduced
